# Assay results from publication PMC10632520, “Structural flexibility of apolipoprotein E-derived arginine-rich peptides improves their cell penetration capability” (Scientific Reports, 2023).
# Residues, ends and D or L forms follow the SMILES beside them.
# Experiment: Channel current (electrophysiological) analysis of peptide-induced pores
# Type: physicochemical
# Details: planar DOPC bilayer, 10 µM peptide, 100 mV; pH 7.0
# Protocol: Electrophysiological measurements were performed using a MECA 16 TC chip with an Orbit 16 TC device (Nanion Technologies GmbH, Munich, Germany) according to the manufacturer’s instructions. The MECA 16 TC chamber was filled with 200 µL of buffer solution (150 mM KCl, 10 mM MOPS, pH 7.0); 1 µL of DOPC (lipid/n-decan, 10 mg/mL) solution was added to the chamber, and planar lipid bilayers were automatically prepared using the Orbit 16TC stirrer. The peptide was then dissolved in the chamber at 10 µM (a lipid/peptide molar ratio of ~ 6 in the chamber system), and 100 mV of voltage was applied. The channel current was monitored using the Orbit 16 TC Elements Data Reader 4 v.1.0.22. The channel current signals were detected using a 4-kHz low-pass filter at a sampling frequency of 20 kHz. Analysis of the channel signals was performed using pCLAMP ver. 10.7 (Molecular Devices, CA, USA). The data obtained in this measurement are n (number of current signals): 2081 > n > 311; N (number of experiments) > 3.
smiles,measurement,value
CC(=O)N[C@@H](CC(C)C)C(=O)N[C@@H](CCCNC(=N)N)C(=O)N[C@@H](CCCCN)C(=O)N[C@@H](CC(C)C)C(=O)N[C@@H](CCCNC(=N)N)C(=O)N[C@@H](CCCCN)C(=O)N[C@@H](CCCNC(=N)N)C(=O)N[C@@H](CC(C)C)C(=O)N[C@@H](CC(C)C)C(=O)N[C@@H](CCCNC(=N)N)C(=O)N[C@@H](CC(C)C)C(=O)N[C@@H](Cc1c[nH]c2ccccc12)C(=O)N[C@@H](CCCCN)C(=O)N[C@@H](CC(C)C)C(=O)N[C@@H](CCCNC(=N)N)C(=O)N[C@@H](CCCCN)C(=O)N[C@@H](CCCNC(=N)N)C(N)=O [A2-17] (Ac-LRKLRKRLLRLWKLRKR-NH2),charge flux accompanied by spike current signal,much greater for A2-17 than that for StpA2-17 or StchA2-17
